The first test deals with T1, RORγ-LBD (Homo sapiens (Human), UniProt P51449). The test can be described thus: RORγ-Ligand Binding Domain (LBD) TR-FRET Assay Protocol I. Type of test: biochemical. The following applies: Protocol I, assay measuring EC50 values less than or equal to 10 μM. The method, then: Part I—Procedures for RORγ-Ligand Binding Domain TR-FRET Assay Protocol I
T1 sequence (P51449 269-508): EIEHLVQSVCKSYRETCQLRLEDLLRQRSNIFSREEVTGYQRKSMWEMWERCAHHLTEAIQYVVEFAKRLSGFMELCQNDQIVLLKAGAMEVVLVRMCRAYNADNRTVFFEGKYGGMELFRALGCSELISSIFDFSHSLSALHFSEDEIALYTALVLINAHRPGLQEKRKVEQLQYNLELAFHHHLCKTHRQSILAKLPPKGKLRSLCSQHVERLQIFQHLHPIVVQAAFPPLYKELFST
Recombinant,HIS-tagged RORγ-LBD was expressed in SF9 cells using a baculovirus expression system. Cells were lysed and the lysate was used as a source for RORγ-LBD for the assay. A 1:80 dilution of RORγ-LBD lysate in assay buffer (25 mM HEPES pH 7.0, 100 mM NaCl, 0.01% Tween, 0.1% BSA) was prepared and 5 μL was added to each well (RORγ-LBD final concentration ˜3 nM). Control wells received lysate from SF9 cells not expressing RORγ-LBD.
Compounds to be tested were diluted to 100× final test concentration in DMSO and further diluted to 4× final test concentration using assay buffer to provide the test compound mixture. An aliquot (5 μL) of the test compound mixture was added to each well.
A 4× stock of biotinylated-LXXLL peptide from SRC1-2 (Biotin-[…]) was prepared in assay buffer and a 5 μL aliquot added to each well (450 nM final concentration). A 4× solution of europium tagged anti-HIS antibody (2 nM final concentration) and APC conjugated streptavidin (60 nM final concentration) were prepared and a 5 μL aliquot added to each well.
The final assay mixture was incubated for 4 hours to overnight, and the fluorescence signal was measured on an Envision plate reader: (Excitation filter=340 nm; APC emission=665 nm; Europium emission=615 nm; dichroic mirror=D400/D630; delay time=100 μs, integration time=200 μs).
EC50 values for test compounds were calculated from the quotient of the fluorescence signal at 665 nm divided by the fluorescence signal at 615 nm using GraphPad Prism software
A general note: Time-resolved FRET reads energy transfer from a long-lived donor to a nearby acceptor.
Regarding `O=C(Nc1cc2c(cn1)cnn2S(=O)(=O)c1ccc(F)cc1)c1c(F)cccc1F` [Compound 4], the RORγ inhibition result is on record as “did not provide measurable RORγ inhibition”. Same read-out and setting: the entry for `N#Cc1cccc(S(=O)(=O)n2ncc3ncc(NC(=O)c4c(F)cccc4Cl)cc32)c1` [Compound 3] is “did not provide measurable RORγ inhibition”.

Staying with this test, now noted: RORγ-LBD lysate from SF9 cells, SRC1-2 peptide.
In general, EC50 refers to the concentration at which the effect is half-maximal. The low end stands for higher potency in that assay, the high end for lower potency in that assay. Compound `CC1COc2ncc(NC(=O)c3c(Cl)cccc3C(F)(F)F)cc2N1S(=O)(=O)c1ccc(F)cc1` (stereo not shown) [Compound 19] yielded an EC50 of 20 nM.

In turn, `Cc1cccc(S(=O)(=O)N2C[C@H](C)Oc3ncc(NC(=O)c4c(F)cccc4Cl)cc32)c1` [Compound 14, (S)-2-chloro-6-fluoro-N-(3-methyl-1-(m-tolylsulfonyl)-2,3-dihydro-1H-pyrido[2,3-b][1,4]oxazin-7-yl)benzamide] returned a concentration for a half-maximal effect (EC50) of 166 nM. On to `Cc1cccc(S(=O)(=O)N2C[C@H](C)Oc3ncc(NC(=O)[C@@H](C)c4ccccc4)cc32)c1` [Compound 28], for which the response was half-maximal at 810 nM (EC50).

`O=C(Nc1cnc2c(c1)N(S(=O)(=O)c1ccc(F)cc1)CCO2)c1c(F)cccc1Cl` [Compound 13, 2-chloro-6-fluoro-N-[1-(4-fluorobenzenesulfonyl)-2,3-dihydro-1H-pyrido[2,3-b][1,4]oxazin-7-yl]benzamide] had an EC50 of 174 nM. `O=C(Nc1cc2c(cn1)cnn2S(=O)(=O)c1ccc(F)cc1)c1c(F)cccc1F` [Compound 4] had an EC50 of 50000 nM. Consider `CC1COc2ncc(NC(=O)c3c(F)cccc3Cl)cc2N1S(=O)(=O)c1cccc(C#N)c1` (stereo not shown) [Compound 20], for which the concentration giving a half-maximal response (EC50) came to 390 nM. For `O=C(Nc1cc2c(cn1)cnn2S(=O)(=O)c1cccc(Cl)c1)c1c(F)cccc1Cl` [Compound 7], the response was half-maximal at 6440 nM (EC50).

Consider `O=C(Nc1cnc2c(c1)N(S(=O)(=O)c1ccc(Cl)cc1)CCO2)c1c(F)cccc1Cl` [Compound 22], for which the EC50 is 90 nM.

`O=C(Nc1cc2c(cn1)cnn2S(=O)(=O)c1ccc(F)cc1)c1c(Cl)cccc1C(F)(F)F` [Compound 6] displayed an EC50 of 2410 nM. Turning to `O=C(Nc1cc2c(cn1)cnn2S(=O)(=O)c1cccc(OC(F)F)c1)c1c(F)cccc1Cl` [Compound 8], a half-maximal effect (EC50) was put at 1060 nM. As for `O=C(Nc1cnc2c(c1)N(S(=O)(=O)c1ccc(F)c(F)c1)CCO2)c1c(F)cccc1Cl` [Compound 23], the EC50 was found to be 100 nM. On the same count and under the same terms, the figure for `O=C(Nc1cc2c(cn1)cnn2S(=O)(=O)c1ccc(F)cc1)c1c(F)cccc1Cl` [Compound 2, 2-chloro-6-fluoro-N-[1-(4-fluorobenzenesulfonyl)-1H-pyrazolo-[4,3-c]pyridin-6-yl]benzamide] is 2400 nM. On to `N#Cc1cccc(S(=O)(=O)N2CCOc3ncc(NC(=O)c4c(F)cccc4Cl)cc32)c1` [Compound 21], for which the concentration for a half-maximal effect (EC50) worked out at 200 nM. For `CC(C)(C)c1cccc(S(=O)(=O)n2ncc3cnc(NC(=O)c4c(F)cccc4Cl)cc32)c1` [Compound 9], a half-maximal response (EC50) required 3520 nM. Regarding `N#Cc1cccc(S(=O)(=O)n2ncc3ncc(NC(=O)c4c(F)cccc4Cl)cc32)c1` [Compound 3], the EC50 stood at 48000 nM. In turn, `O=C(Nc1cc2c(cn1)cnn2S(=O)(=O)c1ccc(F)cc1)c1c(Cl)cccc1Cl` [Compound 5] showed an EC50 of 2610 nM.

The target of a further test is T1, RORγ-LBD. The test can be described thus: RORγ-Ligand Binding Domain (LBD) TR-FRET Assay Protocol II. Type of test: biochemical. As to conditions: purified RORγ-LBD, SRC1 peptide, overnight at 4° C. The protocol: Part II—Procedures for RORγ-Ligand Binding Domain TR-FRET Assay Protocol II
HIS-tagged RORγ-LBD protein was expressed in SF9 cells using a baculovirus expression system. The RORγ-LBD protein was purified by […]. Separately, SF9 cells not expressing recombinant protein were lysed in TBS buffer (25 mM Tris, pH 8.0, 150 mM NaCl) under sonication. The lysate was added to the purified RORγ-LBD in a volume equivalent of 0.75 μL lysate (from 30,000 SF9 cells) per 75 femtomol of RORγ-LBD protein. The resulting mixture was diluted in assay buffer (50 mM Tris pH 7.0, 50 mM KCl, 1 mM EDTA, 0.1 mM DTT, 0.01% BSA) to obtain RORγ-LBD protein at a final concentration of 3 nM.
Compounds to be tested were injected to the assay plate using Acoustic Droplet Ejection technology by Echo 550 liquid handler (Labcyte, Calif.).
A stock of biotinylated-LXXLL peptide from coactivator SRC1 (Biotin-[…]) was prepared in assay buffer and added to each well (100 nM final concentration). A solution of Europium tagged anti-HIS antibody (1.25 nM final concentration) and APC-conjugated streptavidin (8 nM final concentration) were also added to each well.
The final assay mixture was incubated overnight at 4° C., and the fluorescence signal was measured on an Envision plate reader: (Excitation filter=340 nm; APC emission=665 nm; Europium emission=615 nm; dichroic mirror=D400/D630; delay time=100 μs, integration time=200 μs). The EC50 value for test compounds was calculated from the quotient of the fluorescence signal at 665 nm divided by the fluorescence signal at 615 nm
Take `Cc1cccc(S(=O)(=O)N2C[C@H](C)Oc3ncc(NC(=O)c4c(F)cccc4Cl)cc32)c1` [Compound 14, (S)-2-chloro-6-fluoro-N-(3-methyl-1-(m-tolylsulfonyl)-2,3-dihydro-1H-pyrido[2,3-b][1,4]oxazin-7-yl)benzamide]: the concentration for a half-maximal effect (EC50) was determined as 22 nM. The compound `Cc1cccc(S(=O)(=O)N2C[C@H](C)Oc3ncc(NC(=O)[C@@H](C)c4ccccc4)cc32)c1` [Compound 28] returned a concentration for a half-maximal effect (EC50) of 73 nM. `CC1COc2ncc(NC(=O)c3c(F)cccc3Cl)cc2N1S(=O)(=O)c1cccc(C#N)c1` (stereo not shown) [Compound 20]: the EC50 came out at 108 nM. This EC50 and that of the compound before are within 1.5-fold of each other.

`CC(=O)NC[C@H]1CN(S(=O)(=O)c2cccc(C3CC3)c2)c2cc(NC(=O)c3c(Cl)cccc3Cl)cnc2O1` [Compound 18, (S)-N-(3-(acetamidomethyl)-1-((3-cyclopropylphenyl)sulfonyl)-2,3-dihydro-1H-pyrido[2,3-b][1,4]oxazin-7-yl)-2,6-dichlorobenzamide] yielded an EC50 of 13 nM. As for `Cc1cccc(S(=O)(=O)N2C[C@H](C)Oc3ncc(NC(=O)C(C)c4ccc(Cl)cc4)cc32)c1` (stereo partly shown) [Compound 34], it took 108 nM to reach a half-maximal effect (EC50). Compound `Cc1nn(C(F)F)cc1S(=O)(=O)N1C[C@H](NC(=O)C(F)(F)F)Cc2ncc(NC(=O)c3c(F)cccc3Cl)cc21` [Compound 50] registered an EC50 of 31 nM. Same read-out and setting: the figure for `CC(C)(C)OC(=O)NC1Cc2ncc(NC(=O)c3c(Cl)cccc3Cl)cc2N(S(=O)(=O)c2cccc(C3CC3)c2)C1` (stereo not shown) [Compound 69] is 13 nM; for `CCN(CC)[C@@H]1Cc2ncc(NC(=O)c3c(Cl)cccc3Cl)cc2N(S(=O)(=O)c2cccc(C)c2)C1` [Compound 79] it is 24 nM; for `CC(C)(C)OC(=O)N[C@@H]1Cc2ncc(NC(=O)c3c(Cl)cccc3Cl)cc2N(S(=O)(=O)c2cccc(Cl)c2)C1` [Compound 45] it is 6 nM. On the same count and under the same terms, the figure for `Cc1cccc(S(=O)(=O)N2CC(N)COc3ncc(NC(=O)C(F)(F)F)cc32)c1` (stereo not shown) [Compound 71, N-[7-amino-5-(toluene-3-sulfonyl)-5,6,7,8-tetrahydro-9-oxa-1,5-diaza-benzocyclohepten-3-yl]-2,2,2-trifluoro-acetamide] is 13 nM; for `O=C(Nc1cnc2c(c1)N(S(=O)(=O)c1cccc(C(F)(F)F)c1)C[C@H](N1CCCC1=O)C2)c1c(Cl)cccc1Cl` [Compound 82] it is 12 nM; for `CC(C)(C)OC(=O)N[C@H]1Cc2ncc(NC(=O)c3c(Cl)cccc3Cl)cc2N(S(=O)(=O)c2cccc(C(F)(F)F)c2)C1` [Compound 54] it is 17 nM. Regarding `O=C(Nc1cnc2c(c1)N(S(=O)(=O)c1cccc(Cl)c1)C[C@H](CN1CCOCC1)O2)c1c(Cl)cccc1Cl` [Compound 90], the EC50 stood at 30 nM.

Turning to `CCOC(=O)N[C@@H]1Cc2ncc(NC(=O)c3c(Cl)cccc3Cl)cc2N(S(=O)(=O)c2cccc(C(F)(F)F)c2)C1` [Compound 64], the response was half-maximal at 18 nM (EC50). The compound `CC(=O)NC1Cc2ncc(NC(=O)c3c(Cl)cccc3Cl)cc2N(S(=O)(=O)c2cccc(C3CC3)c2)C1` (stereo not shown) [Compound 68] gave an EC50 of 25 nM. `CCC(C)C(=O)Nc1cnc2c(c1)N(S(=O)(=O)c1cccc(C)c1)C[C@H](C)O2` (stereo partly shown) [Compound 33] gave an EC50 of 152 nM.

`C[C@H](N)C(=O)N[C@H]1Cc2ncc(NC(=O)c3c(Cl)cccc3Cl)cc2N(S(=O)(=O)c2cccc(C(F)(F)F)c2)C1` [Compound 51] returned an EC50 of 852 nM. `Cc1cccc(S(=O)(=O)N2CC(N(C)C)COc3ncc(NC(=O)c4c(Cl)cccc4Cl)cc32)c1` (stereo not shown) [Compound 76, 2,6-dichloro-N-[7-dimethylamino-5-(toluene-3-sulfonyl)-5,6,7,8-tetrahydro-9-oxa-1,5-diaza-benzocyclohepten-3-yl]-benzamide] showed an EC50 of 98 nM. `CCN(CC)[C@H]1Cc2ncc(NC(=O)c3c(Cl)cccc3Cl)cc2N(S(=O)(=O)c2cccc(C)c2)C1` [Compound 78] came in with a 50% effective concentration (EC50) of 25 nM. Compound `O=C(Nc1cnc2c(c1)N(S(=O)(=O)c1cccc(Cl)c1)C[C@H](CN1CC[C@@H](O)C1)O2)c1c(Cl)cccc1Cl` [Compound 89] came in with a 50% effective concentration (EC50) of 32 nM. As for `Cc1cccc(S(=O)(=O)N2C[C@H](C)Oc3ncc(NC(=O)C(C)c4ccccc4C)cc32)c1` (stereo partly shown) [Compound 31], the midpoint of the response, the EC50, lay at 57 nM. Turning to `Cc1nn(C(F)F)cc1S(=O)(=O)N1C[C@H](CN2CC[C@@H](O)C2)Cc2ncc(NC(=O)[C@@H](C)C(C)(C)C)cc21` [Compound 95, (S)-N-((S)-5-((1-(difluoromethyl)-3-methyl-1H-pyrazol-4-yl)sulfonyl)-7-(((R)-3-hydroxypyrrolidin-1-yl)methyl)-5,6,7,8-tetrahydro-1,5-naphthyridin-3-yl)-2,3,3-trimethylbutanamide], the half-maximal effective concentration (EC50) worked out at 4100 nM. On the same count and under the same terms, the figure for `C[C@H](O)C(=O)N[C@@H]1Cc2ncc(NC(=O)c3c(Cl)cccc3Cl)cc2N(S(=O)(=O)c2cccc(C(F)(F)F)c2)C1` [Compound 56] is 132 nM; for `C[C@H](O)C(=O)N[C@H]1Cc2ncc(NC(=O)c3c(Cl)cccc3Cl)cc2N(S(=O)(=O)c2cccc(C(F)(F)F)c2)C1` [Compound 52] it is 74 nM; for `Cc1cccc(S(=O)(=O)N2C[C@H](C)Oc3ncc(NC(=O)C(C)c4ccc(F)cc4)cc32)c1` (stereo partly shown) [Compound 32] it is 97 nM.
